This is an account of results in patent publication US10266497B2 (ABIDE THERAPEUTICS, INC., priority 2017, dated 2019).

Experiment [1] has as its target T1, MAGL (Homo sapiens, UniProt Q99685).
T1 sequence (Q99685 1-303): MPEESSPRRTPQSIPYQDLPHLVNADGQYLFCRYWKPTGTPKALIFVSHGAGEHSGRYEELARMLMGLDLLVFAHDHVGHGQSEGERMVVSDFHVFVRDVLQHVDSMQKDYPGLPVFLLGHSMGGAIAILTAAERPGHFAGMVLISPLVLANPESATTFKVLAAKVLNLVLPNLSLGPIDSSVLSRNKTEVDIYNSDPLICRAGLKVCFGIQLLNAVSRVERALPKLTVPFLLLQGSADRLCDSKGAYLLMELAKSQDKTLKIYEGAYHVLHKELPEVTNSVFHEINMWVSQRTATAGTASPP
The experiment in a line: In vitro competitive activity-based protein profiling, MAGL, human. Particulars: read-out: MAGL % inh. 1 μM (human).

Experiment [2] deals with T2, MAGL (Mus musculus, UniProt O35678).
T2 sequence (O35678 1-303): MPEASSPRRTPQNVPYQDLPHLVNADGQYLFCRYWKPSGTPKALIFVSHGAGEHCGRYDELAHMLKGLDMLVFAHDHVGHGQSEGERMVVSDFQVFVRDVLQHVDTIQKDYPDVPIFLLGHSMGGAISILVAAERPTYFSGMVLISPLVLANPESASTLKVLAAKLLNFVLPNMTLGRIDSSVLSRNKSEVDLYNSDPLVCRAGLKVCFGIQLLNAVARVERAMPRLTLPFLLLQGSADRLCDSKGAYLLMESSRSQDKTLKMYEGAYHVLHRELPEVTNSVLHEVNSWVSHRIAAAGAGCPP
The experiment in a line: In vitro competitive activity-based protein profiling, MAGL, mouse. Particulars: read-out: MAGL % inh. 1 μM (mouse).

`O=C(O)c1ccn(C(=O)N2C[C@H]3C[C@H](Oc4cccc(C(F)(F)F)c4)C[C@H]3C2)n1` [Example 231, 1-(trans-5-(3-(trifluoromethyl)phenoxy)octahydro-cyclopenta[c]pyrrole-2-carbonyl)-1H-pyrazole-3-carboxylic acid]: the inhibition at 1 µM on MAGL [1] and on MAGL [2] was over 75% in each case.
Consider `C[C@H]1CN(Cc2cc(Cl)cc(C(F)(F)F)c2)CCN1C(=O)n1ccc(C(N)=O)n1` [Example 271, (S)-1-(4-(3-chloro-5-(trifluoromethyl)benzyl)-2-methylpiperazine-1-carbonyl)-1H-pyrazole-3-carboxamide], for which the inhibition at 1 µM on MAGL [1] and at MAGL [2] was over 75% each time.
Regarding `O=C(O)c1ccn(C(=O)N2CCC(OCc3cccc(N4CCCC4)c3)CC2)n1` [Example 226, 1-(4-((3-(pyrrolidin-1-yl)benzyl)oxy)piper-idine-1-carbonyl)-1H-pyrazole-3-carboxylic acid], the inhibition at 1 µM on MAGL [1] and at MAGL [2] was over 75% each time.
As for `O=C(O)c1ccn(C(=O)N2CCC3(CCN(Cc4cccc(Oc5ccccn5)c4)C3)CC2)n1` [Example 324, 1-(2-(3-(pyridin-2-yloxy)benzyl)-2,8-diazaspiro[4.5]decane-8-carbonyl)-1H-pyrazole-3-carboxylic acid], the inhibition at 1 µM fell in the range of 25 to 50% on MAGL [1] and 0 to 25% at MAGL [2].
With `O=C(O)c1ccn(C(=O)N2C[C@H]3C[C@H](Oc4cccc(-c5nccs5)c4)C[C@H]3C2)n1` [Example 261, 1-(trans-5-(3-(thiazol-2-yl)phenoxy)octa-hydrocyclopenta[c]pyrrole-2-carbonyl)-1H-pyrazole-3-carboxylic acid], the inhibition at 1 µM at MAGL [1] and at MAGL [2] was over 75% throughout.
In the case of `Cc1cn(C(=O)N2CCN(Cc3cc(F)cc(Oc4ccc(Cl)cc4)c3)CC2)nc1C(=O)O` [Example 346, 1-(4-(3-(4-chlorophenoxy)-5-fluorobenzyl)piper-azine-1-carbonyl)-4-methyl-1H-pyrazole-3-carboxylic acid], the inhibition at 1 µM on MAGL [1] and on MAGL [2] was over 75% each time.
On to `O=C(O)c1ccn(C(=O)N2C[C@H]3C[C@H](Oc4ccccc4C4CCOCC4)C[C@H]3C2)n1` [Example 268, 1-(trans-5-(2-(tetrahydro-2H-pyran-4-yl)phenoxy)octa-hydrocyclopenta[c]pyrrole-2-carbonyl)-1H-pyrazole-3-carboxylic acid], for which the inhibition at 1 µM on MAGL [1] and on MAGL [2] was over 75% in each case.
Turning to `C[C@@H]1CN(Cc2cccc(Oc3cc(C(F)(F)F)ccn3)c2)CCN1C(=O)n1ccc(C(=O)O)n1` [Example 374, (R)-1-(2-methyl-4-(3-((4-(trifluoromethyl)pyridin-2-yl)oxy)benzyl)piper-azine-1-carbonyl)-1H-pyrazole-3-carboxylic acid], the inhibition at 1 µM on MAGL [1] and at MAGL [2] was over 75% throughout.
As for `O=C(O)c1ccn(C(=O)N2CCN(Cc3cc(F)cc(Oc4cccc(Cl)c4)c3)CC2)n1` [Example 321, 1-(4-(3-(3-chlorophenoxy)-5-fluorobenzyl)piper-azine-1-carbonyl)-1H-pyrazole-3-carboxylic acid], the inhibition at 1 µM at MAGL [1] and at MAGL [2] was over 75% each time.
Regarding `Cc1c(CO[C@@H]2C[C@@H]3CN(C(=O)n4ccc(C(=O)O)n4)C[C@@H]3C2)cccc1C(F)(F)F` [Example 289, 1-(cis-5-((2-methyl-3-(trifluoromethyl)benzyl)oxy)octa-hydrocyclopenta[c]pyrrole-2-carbonyl)-1H-pyrazole-3-carboxylic acid], the inhibition at 1 µM at MAGL [1] and at MAGL [2] was over 75% throughout.
With `Cc1c(COC2CCN(C(=O)n3ccc(C(=O)O)n3)CC2)cccc1C(F)(F)F` [Example 235, 1-(4-((2-methyl-3-(trifluoromethyl)benzyl)oxy)piper-idine-1-carbonyl)-1H-pyrazole-3-carboxylic acid], the inhibition at 1 µM on MAGL [1] and at MAGL [2] was over 75% in each case.
